Data from US7323485B2, “4-(substituted cycloalkylmethyl) imidazole-2-thiones, 4-(substituted cycloalkenylmethyl) imidazole-2-thiones, 4-(substituted cycloalkylmethyl) imidazol-2-ones and 4-(substituted cycloalkenylmethyl) imidazol-2-ones and related compounds” (Allergan, Inc., priority 2002, dated 2008).

Experiments:
[1] = molecular target: T1, alpha2B adrenergic receptors (Homo sapiens, UniProt P18089); assay: Receptor Selection and Amplification Technology (RSAT) assay, alpha2B; format: cell-based; conditions: for EC50: NA = not active at concentrations less than 10 micromolar, read-out: Alpha 2B EC50; for Alpha 2B intrinsic activity: fraction of maximal effect of standard full agonist brimonidine (UK14304)
T1 construct: expressed in transfected cells; host or cells: NIH-3T3
T1 sequence (P18089 1-450): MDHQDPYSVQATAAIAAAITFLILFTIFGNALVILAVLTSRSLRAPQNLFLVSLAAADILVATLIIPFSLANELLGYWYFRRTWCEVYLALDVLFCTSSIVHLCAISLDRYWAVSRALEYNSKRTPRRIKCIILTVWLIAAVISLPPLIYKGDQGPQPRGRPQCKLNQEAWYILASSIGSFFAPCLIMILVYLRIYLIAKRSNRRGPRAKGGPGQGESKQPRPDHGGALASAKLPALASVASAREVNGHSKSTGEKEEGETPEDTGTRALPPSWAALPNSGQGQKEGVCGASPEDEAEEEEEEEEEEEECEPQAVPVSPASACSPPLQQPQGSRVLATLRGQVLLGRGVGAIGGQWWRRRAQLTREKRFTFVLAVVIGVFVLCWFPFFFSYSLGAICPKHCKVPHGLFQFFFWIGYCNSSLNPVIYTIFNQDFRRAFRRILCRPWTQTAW
Text: (§1) The imidazole-2-thione compounds of the invention are agonists of alpha2 adrenergic receptors, particularly they tend to be specific or selective agonists of alpha2B and/or to a lesser extent alpha2C adrenergic receptors, in preference over alpha2A adrenergic receptors. […] Al., 1995, Pharmacol. Toxicol. 76, pp. 308-311 (incorporated herein by reference) and is also described below. Another reference pertinent to this assay is Conklin et al. (1993) Nature 363:274-6, also incorporated herein by reference.
(§2) Receptor Selection and Amplification Technology (RSAT) Assay
(§3) The RSAT assay measures a receptor-mediated loss of contact inhibition that results in selective proliferation of receptor-containing cells in a mixed population of confluent cells. The increase in cell number is assessed with an appropriate transfected marker gene such as β-galactosidase, the activity of which can be easily measured in a 96-well format. Receptors that activate the G protein, Gq, elicit this response. Alpha2 receptors, which normally couple to Gi, activate the RSAT response when coexpressed with a hybrid Gq protein that has a Gi receptor recognition domain, called Gq/i5.
(§4) NIH-3T3 cells are plated at a density of 2×10^6 cells in 15 cm dishes and maintained in Dulbecco's modified Eagle's medium supplemented with 10% calf serum. One day later, cells are cotransfected by calcium phosphate precipitation with mammalian expression plasmids encoding p-SV-β-galactosidase (5-10 μg), receptor (1-2 μg) and G protein (1-2 μg). 40 μg salmon sperm DNA may also be included in the transfection mixture. Fresh media is added on the following day and 1-2 days later, cells are harvested and frozen in 50 assay aliquots. Cells are thawed and 100 μl added to 100 μl aliquots of various concentrations of drugs in triplicate in 96-well dishes. Incubations continue 72-96 hr at 37 EC. After washing with phosphate-buffered saline, β-galactosidase enzyme activity is determined by adding 200 μl of the chromogenic substrate (consisting of 3.5 mM o-nitrophenyl-β-D-galactopyranoside and 0.5% nonidet P-40 in phosphate buffered saline), incubating overnight at 30 EC and measuring optical density at 420 nm. The absorbance is a measure of enzyme activity, which depends on cell number and reflects a receptor-mediated cell proliferation. The EC50 and maximal effect of each drug at each alpha2 receptor is determined. The efficacy or intrinsic activity is calculated as a ratio of the maximal effect of the drug to the maximal effect of a standard full agonist for each receptor subtype. Brimonidine, also called UK14304, the chemical structure of which is shown below, is used as the standard agonist for the alpha2A, alpha2B and alpha2C receptors.
(§5) The results of the RSAT assay with several exemplary compounds of the invention are disclosed in Table 1 above together with the chemical formulas of these examplary compounds. […] NA stands for “not active” at concentrations less than 10 micromolar. As is known EC50 is the concentration at which half of a given compound's maximal activity is observed.

[2] = molecular target: T2, alpha2C adrenergic receptors (Homo sapiens, UniProt P18825); assay: Receptor Selection and Amplification Technology (RSAT) assay, alpha2C; format: cell-based; conditions: for EC50: NA = not active at concentrations less than 10 micromolar, read-out: Alpha 2C EC50; for Alpha 2C intrinsic activity: fraction of maximal effect of standard full agonist brimonidine (UK14304)
T2 construct: expressed in transfected cells; host or cells: NIH-3T3
T2 sequence (P18825 1-462): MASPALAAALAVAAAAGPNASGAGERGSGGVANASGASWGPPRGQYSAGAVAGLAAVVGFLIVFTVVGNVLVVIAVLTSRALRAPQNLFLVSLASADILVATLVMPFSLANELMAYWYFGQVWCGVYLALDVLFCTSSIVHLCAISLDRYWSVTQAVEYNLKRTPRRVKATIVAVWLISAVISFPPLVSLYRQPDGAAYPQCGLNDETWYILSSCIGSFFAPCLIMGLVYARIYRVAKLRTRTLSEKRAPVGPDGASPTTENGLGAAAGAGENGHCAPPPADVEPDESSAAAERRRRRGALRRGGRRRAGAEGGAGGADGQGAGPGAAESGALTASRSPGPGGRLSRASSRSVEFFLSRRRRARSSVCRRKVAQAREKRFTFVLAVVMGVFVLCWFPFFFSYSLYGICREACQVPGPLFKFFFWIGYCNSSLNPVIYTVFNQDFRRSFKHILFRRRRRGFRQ
Text: as §1, §2, §3, §4, §5

| Structure (SMILES) | EC50 [1] [nM] | Alpha 2B intrinsic activity [1] | EC50 [2] [nM] | Alpha 2C intrinsic activity [2] |
| --- | --- | --- | --- | --- |
| Fc1cc2c(cc1F)C(Cc1c[nH]c(=S)[nH]1)CC2 (stereo not shown) | 354 | 0.363 | 662 | 0.38 |
| CC1=CCCCC1Cc1c[nH]c(=S)[nH]1 (stereo not shown) | 85 | 1.07 | 677 | 1.13 |
| S=c1[nH]cc(CC2CCCc3cccnc32)[nH]1 (stereo not shown) | 236 | 1.07 | 2820 | 0.46 |
| N#Cc1ccc(C2=CCCC2Cc2c[nH]c(=S)[nH]2)cc1 (stereo not shown) | 498 | 0.91 | 155 | 1.01 |
| Cc1ccc2c(c1)C(Cc1c[nH]c(=S)[nH]1)CC2 (stereo not shown) | 19 | 0.92 | 349 | 0.69 |
| S=c1[nH]cc(C2Cc3ccc(Br)cc3C2)[nH]1 (stereo not shown) | 28 | 0.87 | 321 | 0.38 |
| Fc1cc(F)cc(C2=CCC[C@@H]2Cc2c[nH]c(=S)[nH]2)c1 | 1600 | 0.59 | 569 | 0.68 |
| Cc1ccc(C)c2c1CC(c1c[nH]c(=S)[nH]1)C2 | 7 | 1.27 | 92 | 0.86 |
| C=CC1=CCCC1Cc1c[nH]c(=S)[nH]1 (stereo not shown) | 422 | 1.11 | > 2000 | 0.57 |
| Cc1c(Cl)ccc2c1CC(c1c[nH]c(=S)[nH]1)C2 (stereo not shown) | 14 | 0.91 | 561 | 0.45 |
| Fc1ccc(C2=CCCC2Cc2c[nH]c(=S)[nH]2)c(F)c1 (stereo not shown) | 219 | 0.42 | 290 | 0.62 |
| Cc1ccc2c(c1)CC(c1c[nH]c(=S)[nH]1)C2 (stereo not shown) | 27 | 1.12 | 374 | 0.45 |
| S=c1[nH]cc(C[C@H]2CCc3ccccc32)[nH]1 | 7.5 | 0.95 | 64 | 0.56 |
| O=[N+]([O-])c1cccc(C2=CCCC2Cc2c[nH]c(=S)[nH]2)c1 (stereo not shown) | > 10000 |  | 2510 |  |
| CC=CC1=CCCC1Cc1c[nH]c(=S)[nH]1 (stereo not shown) | 1620 | 0.88 | 2470 | 0.72 |
| S=c1[nH]cc(C2CCc3ccccc3C2)[nH]1 (stereo not shown) | 34 | 1.03 | 423 | 0.52 |
| CC1Cc2ccccc2C1Cc1c[nH]c(=S)[nH]1 (stereo not shown) | 578 | 1.1 | > 2000 | 0.57 |
| COc1ccc2c(c1)C(Cc1c[nH]c(=S)[nH]1)CC2 (stereo not shown) | 30 | 0.94 | 139 | 1.0 |
| S=c1[nH]cc(C2Cc3cccc(Br)c3C2)[nH]1 (stereo not shown) | 5 | 1.07 | 106 | 0.87 |
| CC1=C(c2ccc([N+](=O)[O-])cc2)C(Cc2c[nH]c(=S)[nH]2)CC1 (stereo not shown) | 21 |  | 92 |  |
| CC1=C(c2cc(F)cc(F)c2)C(Cc2c[nH]c(=S)[nH]2)CC1 (stereo not shown) | 115 | 0.89 | 47 | 1.11 |
| Fc1ccc(C2=CCCC2Cc2c[nH]c(=S)[nH]2)cc1 (stereo not shown) | 459 | 0.68 | 152 | 0.77 |
| S=c1[nH]cc(C2Cc3ccc(Cl)c(Cl)c3C2)[nH]1 (stereo not shown) | 7 | 1 | 190 | 0.53 |
